Target: T1, human TLR7 (Homo sapiens, UniProt Q9NYK1)
T1 sequence (Q9NYK1 27-1049): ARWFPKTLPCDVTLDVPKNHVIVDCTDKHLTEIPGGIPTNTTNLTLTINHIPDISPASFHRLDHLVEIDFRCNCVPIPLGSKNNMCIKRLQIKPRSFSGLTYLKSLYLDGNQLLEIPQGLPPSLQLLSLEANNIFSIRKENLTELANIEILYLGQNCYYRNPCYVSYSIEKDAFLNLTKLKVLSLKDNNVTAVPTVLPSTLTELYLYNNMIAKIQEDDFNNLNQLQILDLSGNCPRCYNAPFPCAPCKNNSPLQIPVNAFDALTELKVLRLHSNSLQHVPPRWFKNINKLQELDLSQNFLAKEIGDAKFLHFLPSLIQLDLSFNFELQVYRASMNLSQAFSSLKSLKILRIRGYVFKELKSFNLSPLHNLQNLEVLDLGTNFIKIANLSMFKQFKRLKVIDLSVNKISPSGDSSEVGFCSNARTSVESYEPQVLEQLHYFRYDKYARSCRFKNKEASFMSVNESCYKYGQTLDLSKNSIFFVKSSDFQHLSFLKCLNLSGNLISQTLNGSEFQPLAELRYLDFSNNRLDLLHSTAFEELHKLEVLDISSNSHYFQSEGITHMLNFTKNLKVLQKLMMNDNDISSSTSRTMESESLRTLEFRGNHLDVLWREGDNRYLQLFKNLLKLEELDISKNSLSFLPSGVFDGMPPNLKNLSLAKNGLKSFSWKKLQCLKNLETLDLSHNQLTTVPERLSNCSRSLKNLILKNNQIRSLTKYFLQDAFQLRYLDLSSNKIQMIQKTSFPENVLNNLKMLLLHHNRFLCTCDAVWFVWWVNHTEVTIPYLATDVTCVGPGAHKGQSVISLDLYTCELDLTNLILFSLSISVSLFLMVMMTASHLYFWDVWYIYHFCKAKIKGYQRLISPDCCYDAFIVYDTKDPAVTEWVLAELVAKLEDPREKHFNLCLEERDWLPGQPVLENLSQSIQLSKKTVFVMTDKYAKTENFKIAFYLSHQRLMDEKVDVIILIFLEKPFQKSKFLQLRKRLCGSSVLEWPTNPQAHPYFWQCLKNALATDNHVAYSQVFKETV
Test: HEK293-Blue-hTLR-7 cells assay (SEAP reporter, R848 stimulation)
Assay type: cell-based
Conditions: HEK293-Blue-hTLR7 cells, R848 ligand, 20 hrs incubation
Method in brief: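 Antagonism measured in stable HEK293-Blue-hTLR7 cells carrying an NF-κB/AP-1-driven SEAP reporter, stimulated with R848 (10 µL of 20 µM stock) with serially diluted compound, 1% DMSO, 20 h at 37 °C. Supernatant SEAP read with QUANTI-Blue after 2 h at 37 °C, absorbance 620–655 nm.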

N#Cc1ccc(N2CC(CN3CCNCC3)C3(CC3)C2)c2nccnc12 (centres unmarked) [Example 3, 8-[7-(piperazin-1-ylmethyl)-5-azaspiro[2.4]heptan-5-yl]quinoxaline-5-carbonitrile]
IC50: 27 nM

N#Cc1ccc(N2CC(CN3CC4CCC(C3)C4N)C3(CC3)C2)c2nccnc12 (centres unmarked) [Example 4, 8-[7-[(8-Amino-3-azabicyclo[3.2.1]octan-3-yl)methyl]-5-azaspiro[2.4]heptan-5-yl]quinoxaline-5-carbonitrile]
IC50: 28 nM

CN(C)[C@@H]1CCN(C[C@H]2CN(c3ccc(C#N)c4nccnc34)C[C@@H]2C(F)(F)F)C1 [Example 83, 8-[(3S,4R)-3-[[(3R)-3-(dimethylamino)pyrrolidin-1-yl]methyl]-4-(trifluoromethyl)pyrrolidin-1-yl]quinoxaline-5-carbonitrile]
IC50: 25 nM

CN1CCC2(CCN(C[C@H]3CN(c4ccc(C#N)c5nccnc45)C[C@@H]3C(F)(F)F)C2)C1 (stereo partly drawn) [Example 84, 8-[(3S,4R)-3-[(7-methyl-2,7-diazaspiro[4.4]nonan-2-yl)methyl]-4-(trifluoromethyl)pyrrolidin-1-yl]quinoxaline-5-carbonitrile]
IC50: 48 nM

CC1(CN)CCN(C[C@H]2CN(c3ccc(C#N)c4nccnc34)C[C@@H]2C(F)(F)F)C1 (stereo partly drawn) [Example 85, 8-[(3S,4R)-3-[[3-(aminomethyl)-3-methyl-pyrrolidin-1-yl]methyl]-4-(trifluoromethyl)pyrrolidin-1-yl]quinoxaline-5-carbonitrile]
IC50: 83 nM

— patent US20210253575A1, “PYRROLIDINE AMINE COMPOUNDS FOR THE TREATMENT OF AUTOIMMUNE DISEASE” (Hoffmann-La Roche Inc., priority 2018, published 2021)
